Measured values from patent US20210038607A1, “OXADIAZOLYLTHIOPHENE DERIVATIVES USEFUL AS HISTONE DEACETYLASE INHIBITORS” (Karus Therapeutics Limited, priority 2018, published 2021).

Key:
Recombinant human HDAC6 = target: T1, Recombinant human HDAC6 (Homo sapiens, UniProt Q9UBN7); test: HDAC6 biochemical assay, AMC-labeled peptide substrate; settings: HDAC6; read-out: HDAC Isoform IC50 (nM) 6
T1 construct: full length, MW=159 kDa; GST (N); host or cells: Sf9 insect cells (baculovirus)
T1 sequence (Q9UBN7 1-1215): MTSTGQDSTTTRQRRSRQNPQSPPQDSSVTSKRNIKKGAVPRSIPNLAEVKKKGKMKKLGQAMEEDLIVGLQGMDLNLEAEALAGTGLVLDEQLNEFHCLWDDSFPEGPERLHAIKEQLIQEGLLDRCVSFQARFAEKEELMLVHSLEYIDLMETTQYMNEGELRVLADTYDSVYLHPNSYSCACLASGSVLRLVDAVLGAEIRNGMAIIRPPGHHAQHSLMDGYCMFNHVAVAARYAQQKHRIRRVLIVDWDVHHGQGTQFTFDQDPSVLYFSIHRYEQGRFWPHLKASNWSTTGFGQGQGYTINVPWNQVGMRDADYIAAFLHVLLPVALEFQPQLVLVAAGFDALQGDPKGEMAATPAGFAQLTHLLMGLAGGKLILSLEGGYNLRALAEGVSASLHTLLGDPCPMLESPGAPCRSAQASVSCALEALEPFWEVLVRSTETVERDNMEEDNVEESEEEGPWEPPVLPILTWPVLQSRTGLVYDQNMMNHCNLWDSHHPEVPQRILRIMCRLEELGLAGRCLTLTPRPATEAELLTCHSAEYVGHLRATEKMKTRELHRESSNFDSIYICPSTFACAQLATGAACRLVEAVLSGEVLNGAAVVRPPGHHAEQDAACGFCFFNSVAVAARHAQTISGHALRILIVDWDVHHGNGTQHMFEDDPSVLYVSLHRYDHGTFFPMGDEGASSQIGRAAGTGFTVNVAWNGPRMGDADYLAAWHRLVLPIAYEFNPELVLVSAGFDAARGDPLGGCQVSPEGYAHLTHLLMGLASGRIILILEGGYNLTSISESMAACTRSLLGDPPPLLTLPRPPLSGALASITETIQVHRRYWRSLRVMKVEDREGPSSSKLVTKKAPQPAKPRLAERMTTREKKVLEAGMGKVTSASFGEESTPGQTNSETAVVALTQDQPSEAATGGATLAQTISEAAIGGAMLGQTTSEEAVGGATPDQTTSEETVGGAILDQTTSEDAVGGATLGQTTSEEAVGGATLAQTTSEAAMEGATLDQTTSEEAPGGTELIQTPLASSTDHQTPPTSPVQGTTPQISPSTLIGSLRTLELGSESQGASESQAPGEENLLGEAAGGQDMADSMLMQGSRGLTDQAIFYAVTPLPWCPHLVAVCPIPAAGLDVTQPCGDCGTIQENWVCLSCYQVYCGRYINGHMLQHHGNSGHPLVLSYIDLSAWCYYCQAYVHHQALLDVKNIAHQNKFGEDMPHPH
How it was run: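 Two-step fluorogenic read-out: enzyme deacetylates 50 μM RHKK(Ac)AMC for 1 h at 30° C in pH 8.0 Tris buffer with BSA and 1% DMSO, then developer cleavage gives signal at Ex 360/Em 460. Enzyme: 0.3 ng/ul recombinant full-length human HDAC6, GST-tagged, Sf9-expressed.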

Human HDAC5 = target: T2, Human HDAC5 (Homo sapiens, UniProt Q9UQL6); test: HDAC5 biochemical assay, class IIa-specific substrate; settings: read-out: HDAC Isoform IC50 (nM) 5
T2 construct: full length with C-terminal His tag, MW=51.1 kDa; His (C); host or cells: baculovirus expression system
T2 sequence (Q9UQL6 656-1122 limits assumed): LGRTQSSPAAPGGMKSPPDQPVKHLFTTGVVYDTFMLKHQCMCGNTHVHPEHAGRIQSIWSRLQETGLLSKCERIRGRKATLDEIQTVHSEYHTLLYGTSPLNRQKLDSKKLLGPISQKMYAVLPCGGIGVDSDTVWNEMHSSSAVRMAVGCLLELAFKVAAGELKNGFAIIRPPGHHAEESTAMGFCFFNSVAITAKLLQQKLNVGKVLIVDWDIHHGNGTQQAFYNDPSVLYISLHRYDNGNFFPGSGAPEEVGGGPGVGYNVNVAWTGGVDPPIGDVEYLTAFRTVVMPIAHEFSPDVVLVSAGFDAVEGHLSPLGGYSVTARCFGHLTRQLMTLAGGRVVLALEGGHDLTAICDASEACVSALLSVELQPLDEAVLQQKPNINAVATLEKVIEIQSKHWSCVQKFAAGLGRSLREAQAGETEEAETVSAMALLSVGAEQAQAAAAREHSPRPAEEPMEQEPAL
How it was run: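 Two-step fluorogenic read-out: deacetylated trifluoroacetyl-lysine AMC substrate (50 μM) digested by developer, measured at Ex/Em 360/460. Deacetylation step: 0.05 ng/ul His-tagged full-length baculoviral enzyme with compound, 30 min, room temperature, pH 8.0 Tris with 1 mg/mL BSA and 1% DMSO.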

Human HDAC9 = target: T3, Human HDAC9 (Homo sapiens, UniProt Q9UKV0); test: HDAC9 biochemical assay, class IIa-specific substrate; settings: read-out: HDAC Isoform IC50 (nM) 9
T3 construct: amino acids 604-1066 with C-terminal His tag; His (C); host or cells: baculovirus expression system
T3 sequence (Q9UKV0 604-1066 isoform Q9UKV0-5): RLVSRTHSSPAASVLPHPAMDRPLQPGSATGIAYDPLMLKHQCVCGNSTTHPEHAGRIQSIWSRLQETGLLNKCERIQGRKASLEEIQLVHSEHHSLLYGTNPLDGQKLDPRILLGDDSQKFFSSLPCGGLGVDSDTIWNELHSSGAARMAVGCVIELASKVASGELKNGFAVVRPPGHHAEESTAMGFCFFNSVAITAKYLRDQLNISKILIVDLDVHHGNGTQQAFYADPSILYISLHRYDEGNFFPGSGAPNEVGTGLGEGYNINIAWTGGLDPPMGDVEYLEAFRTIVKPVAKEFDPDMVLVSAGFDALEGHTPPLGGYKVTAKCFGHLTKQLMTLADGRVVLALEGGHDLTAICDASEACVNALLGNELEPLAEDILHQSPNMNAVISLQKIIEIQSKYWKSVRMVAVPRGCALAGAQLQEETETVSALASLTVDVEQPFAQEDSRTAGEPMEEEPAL
How it was run: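 HDAC9 residues 604-1066 (C-terminal His tag, baculovirus-expressed) at 0.06 ng/ul with 50 μM class IIa substrate Boc-Lys(trifluoroacetyl)-AMC in Tris-HCl pH 8.0 buffer with BSA and 1% DMSO. 30 min at room temperature, then developer added; fluorescence read at 360/460 nm Ex/Em.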

Human HDAC1 = target: T4, Human HDAC1 (Homo sapiens, UniProt Q13547); test: HDAC1 biochemical assay, AMC-labeled peptide substrate; settings: read-out: HDAC Isoform IC50 (nM) 1
T4 construct: full length with C-terminal His-tag and C-terminal FLAG-tag; His (C); FLAG (C); host or cells: baculovirus expression system
T4 sequence (Q13547 whole entry, canonical isoform): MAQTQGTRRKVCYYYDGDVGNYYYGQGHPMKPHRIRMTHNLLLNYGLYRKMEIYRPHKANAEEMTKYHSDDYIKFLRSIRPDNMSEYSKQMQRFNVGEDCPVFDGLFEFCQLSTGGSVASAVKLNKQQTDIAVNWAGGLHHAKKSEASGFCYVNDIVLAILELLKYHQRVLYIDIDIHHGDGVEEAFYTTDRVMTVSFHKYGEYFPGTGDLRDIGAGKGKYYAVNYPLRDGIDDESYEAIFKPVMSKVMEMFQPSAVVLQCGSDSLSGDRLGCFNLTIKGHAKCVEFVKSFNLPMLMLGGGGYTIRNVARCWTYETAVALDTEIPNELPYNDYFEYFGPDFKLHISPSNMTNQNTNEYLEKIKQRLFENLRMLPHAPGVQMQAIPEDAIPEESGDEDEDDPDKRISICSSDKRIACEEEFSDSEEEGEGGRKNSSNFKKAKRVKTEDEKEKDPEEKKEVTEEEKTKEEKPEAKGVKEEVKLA
How it was run: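 Two-step fluorogenic read: HDAC1 deacetylates 50 μM acetyl-lysine AMC peptide RHKK(Ac)AMC for 1 h at 30° C (pH 8.0, 1% DMSO, with compound), then developer digests the product for fluorescence at Ex/Em 360/460. Enzyme is full-length human, His/FLAG-tagged, insect-cell expressed, at 0.3 ng/ul.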

Human HDAC7 = target: T5, Human HDAC7 (Homo sapiens, UniProt Q8WUI4); test: HDAC7 biochemical assay, class IIa-specific substrate; settings: read-out: HDAC Isoform IC50 (nM) 7
T5 construct: (a.a. 518-end) with N-terminal GST tag; GST (N); host or cells: baculovirus expression system
T5 sequence (Q8WUI4 518-952 limits assumed): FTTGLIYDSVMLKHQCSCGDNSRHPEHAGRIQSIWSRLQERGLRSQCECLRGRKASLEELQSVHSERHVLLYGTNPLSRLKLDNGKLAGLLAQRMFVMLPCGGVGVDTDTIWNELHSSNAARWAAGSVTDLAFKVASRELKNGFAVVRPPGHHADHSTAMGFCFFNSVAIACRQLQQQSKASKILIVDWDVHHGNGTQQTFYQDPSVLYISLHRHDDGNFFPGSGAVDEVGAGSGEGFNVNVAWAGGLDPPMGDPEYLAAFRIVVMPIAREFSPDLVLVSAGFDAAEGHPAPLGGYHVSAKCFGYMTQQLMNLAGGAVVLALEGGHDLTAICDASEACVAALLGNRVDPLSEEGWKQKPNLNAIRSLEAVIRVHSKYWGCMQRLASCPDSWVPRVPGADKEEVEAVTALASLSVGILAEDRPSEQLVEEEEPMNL
How it was run: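 Two-step fluorogenic readout: class IIa-selective trifluoroacetyl-lysine AMC substrate (50 μM) deacetylated by N-terminal GST-HDAC7 fragment (0.001 ng/ul), then digested by developer, Ex/Em 360/460. Reaction: 30 min, room temperature, Tris-HCl pH 8.0, NaCl/KCl/MgCl2, 1 mg/mL BSA, 1% DMSO.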

Human HDAC4 = target: T6, Human HDAC4 (Homo sapiens, UniProt P56524); test: HDAC4 biochemical assay, class IIa-specific substrate; settings: read-out: HDAC Isoform IC50 (nM) 4
T6 construct: amino acids 627-1085 with N-terminal GST tag; GST (N); host or cells: baculovirus expression system
T6 sequence (P56524 627-1084 limits assumed): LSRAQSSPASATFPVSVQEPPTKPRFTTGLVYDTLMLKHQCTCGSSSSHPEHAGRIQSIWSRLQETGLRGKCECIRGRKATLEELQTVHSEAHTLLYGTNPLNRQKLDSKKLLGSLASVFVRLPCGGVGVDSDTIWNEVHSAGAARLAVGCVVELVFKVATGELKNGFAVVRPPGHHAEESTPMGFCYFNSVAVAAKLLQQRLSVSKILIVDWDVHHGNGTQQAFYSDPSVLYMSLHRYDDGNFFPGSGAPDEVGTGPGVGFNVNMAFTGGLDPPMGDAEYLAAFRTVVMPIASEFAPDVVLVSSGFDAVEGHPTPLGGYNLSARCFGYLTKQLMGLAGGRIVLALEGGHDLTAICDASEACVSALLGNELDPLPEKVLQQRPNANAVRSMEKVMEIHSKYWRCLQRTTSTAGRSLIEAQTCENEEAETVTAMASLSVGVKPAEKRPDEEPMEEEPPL
How it was run: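 Two-step fluorogenic read-out: deacetylated BOC-Lys(trifluoroacetyl)-AMC (50 μM) was digested by developer and measured at Ex/Em 360/460. Deacetylation by 0.004 ng/ul HDAC4 (aa 627-1085, N-terminal GST) ran 30 min at room temperature, pH 8.0 Tris buffer, 1 mg/mL BSA, 1% DMSO.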

IC50 (Recombinant human HDAC6)	IC50 (Human HDAC5)	IC50 (Human HDAC9)	IC50 (Human HDAC1)	IC50 (Human HDAC7)	IC50 (Human HDAC4)	Compound
≤ 10000 nM	≤ 1000 nM	≤ 10000 nM	> 10000 nM	≤ 1000 nM	≤ 1000 nM	CS(=O)(=O)c1cnc(N(Cc2ccc(-c3noc(C(F)(F)F)n3)s2)c2cnccn2)cn1 [Example BL, 5-Methanesulfonyl-N-(pyrazin-2-yl)-N-({5-[5-(trifluoromethyl)-1,2,4-oxadiazol-3-yl]thiophen-2-yl}methyl)pyrazin-2-amine]
≤ 500 nM	≤ 500 nM	≤ 1000 nM	> 10000 nM	≤ 500 nM	≤ 500 nM	FC(F)(F)c1nc(-c2ccc(CN(c3cccnc3)c3cnccn3)s2)no1 [Example AO, N-(Pyridin-3-yl)-N-({5-[5-(trifluoromethyl)-1,2,4-oxadiazol-3-yl]thiophen-2-yl}methyl)pyrazin-2-amine]
≤ 10000 nM	≤ 500 nM	≤ 1000 nM	> 10000 nM	≤ 1000 nM	≤ 500 nM	Cc1cnc(N(Cc2ccc(-c3noc(C(F)(F)F)n3)s2)c2cnccn2)c(C)n1 [Example BV, 3,5-Dimethyl-N-(pyrazin-2-yl)-N-({5-[5-(trifluoromethyl)-1,2,4-oxadiazol-3-yl]thiophen-2-yl}methyl)pyrazin-2-amine]
≤ 500 nM	≤ 500 nM	≤ 10000 nM	> 10000 nM	≤ 1000 nM	≤ 10000 nM	Fc1cc(-c2noc(C(F)(F)F)n2)sc1CN(c1cnccn1)c1cnccn1 [Example EY, N-({3-Fluoro-5-[5-(trifluoromethyl)-1,2,4-oxadiazol-3-yl]thiophen-2-yl}methyl)-N-(pyrazin-2-yl)pyrazin-2-amine]
≤ 1000 nM	≤ 10000 nM	≤ 10000 nM	> 10000 nM	≤ 10000 nM	≤ 10000 nM	FC(F)(F)c1cnnc(N(Cc2ccc(-c3noc(C(F)(F)F)n3)s2)c2cncnc2)c1 [Example EQ, N-(Pyrimidin-5-yl)-5-(trifluoromethyl)-N-({5-[5-(trifluoromethyl)-1,2,4-oxadiazol-3-yl]thiophen-2-yl}methyl)pyridazin-3-amine]
≤ 500 nM	≤ 500 nM	≤ 10000 nM	≤ 10000 nM	≤ 500 nM	≤ 500 nM	CN1CCN(c2ccc(N(Cc3ccc(-c4noc(C(F)(F)F)n4)s3)c3cnccn3)nn2)CC1 [Example DK, 6-(4-Methylpiperazin-1-yl)-N-(pyrazin-2-yl)-N-({5-[5-(trifluoromethyl)-1,2,4-oxadiazol-3-yl]thiophen-2-yl}methyl)pyridazin-3-amine]
≤ 500 nM	≤ 1000 nM	≤ 10000 nM	> 10000 nM	≤ 10000 nM	≤ 10000 nM	FC(F)(F)c1nc(-c2ccc(CN(c3cnccn3)c3ccc(N4CCOCC4)nn3)s2)no1 [Example DJ, 6-(Morpholin-4-yl)-N-(pyrazin-2-yl)-N-({5-[5-(trifluoromethyl)-1,2,4-oxadiazol-3-yl]thiophen-2-yl}methyl)pyridazin-3-amine]
≤ 10000 nM	≤ 1000 nM	≤ 1000 nM	> 10000 nM	≤ 1000 nM	≤ 1000 nM	Cc1nccc(N(Cc2ccc(-c3noc(C(F)(F)F)n3)s2)c2cnccn2)n1 [Example CA, 2-Methyl-N-(pyrazin-2-yl)-N-({5-[5-(trifluoromethyl)-1,2,4-oxadiazol-3-yl]thiophen-2-yl}methyl)pyrimidin-4-amine]
≤ 10000 nM	≤ 10000 nM	≤ 10000 nM	> 10000 nM	≤ 10000 nM	≤ 10000 nM	Cc1ccc(N(Cc2ccc(-c3noc(C(F)(F)F)n3)s2)c2cnccn2)nn1 [Example DF, 6-Methyl-N-(pyrazin-2-yl)-N-({5-[5-(trifluoromethyl)-1,2,4-oxadiazol-3-yl]thiophen-2-yl}methyl)pyridazin-3-amine]
≤ 10000 nM	≤ 500 nM	≤ 1000 nM	> 10000 nM	≤ 1000 nM	≤ 500 nM	Cc1ncc(N(Cc2ccc(-c3noc(C(F)(F)F)n3)s2)c2cnccn2)c(C)n1 [Example DB, 2,4-Dimethyl-N-(pyrazin-2-yl)-N-({5-[5-(trifluoromethyl)-1,2,4-oxadiazol-3-yl]thiophen-2-yl}methyl)pyrimidin-5-amine]
≤ 10000 nM	≤ 10000 nM	≤ 10000 nM	> 10000 nM	> 10000 nM	≤ 10000 nM	FC(F)(F)c1ccc(N(Cc2ccc(-c3noc(C(F)(F)F)n3)s2)c2cnccn2)nc1 [Example AB, N-({5-[5-(Trifluoromethyl)-1,2,4-oxadiazol-3-yl]thiophen-2-yl}methyl)-N-[5-(trifluoromethyl)pyridin-2-yl]pyrazin-2-amine]
≤ 1000 nM	≤ 10000 nM	≤ 10000 nM	> 10000 nM	≤ 10000 nM	≤ 10000 nM	COc1cncnc1N(Cc1ccc(-c2noc(C(F)(F)F)n2)s1)c1cnccn1 [Example CP, 5-Methoxy-N-(pyrazin-2-yl)-N-({5-[5-(trifluoromethyl)-1,2,4-oxadiazol-3-yl]thiophen-2-yl}methyl)pyrimidin-4-amine]
